Patent EP1649856A2, “Use of pimecrolimus for selective immunomodulation” (Novartis AG, priority 2001, dated 2002)

Assays:
[1] = system: SCID mice reconstituted with CD4^+CD45RB^HI T cells; assay: SCID-IBD mouse model, treatment from day 1 for 4 weeks; assay type: in vivo; conditions: 3 and 10 mg/kg/day p.o., steroid-related
Source text: A well-established animal model for IBD exists (see Leach et al., Am. J. Pathol., Vol. 148, No. 5, pp. 1503-1515 (1996), and Powrie et al., Int. Immunol., Vol. 5, No. 11, pp. 1461-1471 (1993)). It is known that the transfer of syngeneic, naive T lymphocytes (CD4^+CD45RB^HI) into SCID mice results in a severe colitis and wasting disease, SCID-IBD. Histopathologically, features of both CD and UC are represented in this model which has been used throughout the 1990s to bring the understanding of the pathoetiology of this disease of immune dysregulation in man to its present status. There is no other animal model of IBD which is considered relevant for the human disease, both in mechanism and in validity of clinical treatment.
In this study, SCID mice reconstituted with CD4^+CD45RB^HI T lymphocytes were used. These mice are known to develop chronic colitis with characteristics similar to human IBD, as described above.
In this study, SCID mice were reconstituted with 2 x 10^5 CD4^+CD45RB^HI T cells and then treated with pimecrolimus (30, 60 and 100 mg/kg/day) or vehicle daily p.o. for 4 weeks. […] BW was monitored throughout. On termination, blood was withdrawn, spleen, mesenteric lymph nodes (MLN) and colon were removed. Serum haptoglobin levels were measured (ELISA), colitis was assessed histologically and lymphocyte and neutrophil numbers were calculated from FACS analysis of blood, spleen and MLN cell suspensions.
In order to determine the efficacy of ASM981 treatment in preventing intestinal mucosal damage in SCID-IBD mice, a histological examination of the colon sections was performed according to defined morphological parameters. All colon sections were assessed according to a scheme awarding degrees of severity governed by the extent of cell infiltration and inflammation with a score of 8 being the maximum.

in vivo = assay: in vivo; set-up: species or system rats; conditions: rat, skin; 2 oral doses of 25 mg/kg in an interval of 2 hours; 6 hours after the last dosing; read-out: skinlblood concentration ratio
Experimental: In another study designed to explore the differences between pimecrolimus and FK506 and to determine whether these differences might be associated with a different tissue distribution, the exposure to pimecrolimus and FK506 in various organs after oral administration were measured. Animals received 2 oral doses of 25 mg/kg in an interval of 2 hours. […] Pimecrolimus was found consistently to have a higher skinlblood concentration ratio than FK506 (2 hours: 7.3 vs. 2.8; 6 hours: 13 vs. 1.6; 24 hours: 36 vs. 6.0). The AUC0-24h in skin calculated for pimecrolimus was twice as high as with FK506.
These distribution characteristics are relevant not only for oral, but also for topical application, as the compound enters systemic circulation after permeation through the skin.

effect on BW [1]	Kp at 6 h (in vivo)	Structure (SMILES)
accelerated loss in BW		C[C@@H]1C[C@H]2[C@@H]3CCC4=CC(=O)C=C[C@]4(C)[C@@]3(F)[C@@H](O)C[C@]2(C)[C@@]1(O)C(=O)CO [Dexamethasone, reference compound]
	1.6	C=CC[C@@H]1/C=C(\C)C[C@H](C)C[C@H](OC)[C@H]2O[C@@](O)(C(=O)C(=O)N3CCCC[C@H]3C(=O)O[C@H](/C(C)=C/[C@@H]3CC[C@@H](O)[C@H](OC)C3)[C@H](C)[C@@H](O)CC1=O)[C@H](C)C[C@@H]2OC [FK506, tacrolimus, reference compound]
